Source: patent publication US20070264243A1, “REVERSIBLY IMMORTALIZED HEPATOCYTES AND METHODS OF USE” (priority 1999, published 2007)
“Also recorded” adds a separate entry of the source.

What was measured:
[1] = test system: NKNT-3 cells; experiment: MTT cytotoxicity assay; type: cell-based, human
Method: MTT Cytotoxicity Assays. Sensitivity of NKNT-3 cells to either 5 μM ganciclovir or G418 (500 μg/ml) was confirmed by 3-(4,5-dimethyl-2-thiazolyl)-2,5-diphenyl 2H-tetrazolium bromide (MTT) cytotoxicity assays. NKNT-3 cells were plated in a 96-well microplate at 5×10^3 cells per well to obtain a growth curve. On days 1, 3, 5, and 7, MTT (20 μg/ml) was added to a different well, incubated for 4 h, and then reacted with 150 μl of isopropanol for 10 min. Relative percentage of viability was determined by the ratio of absorbance at 570 and 630 nm with Bio-Rad EIA reader (Bio-Rad, Richmond, Calif.).

[2] = test system: C8-B/Ras cells; experiment: Soft agar assay, sensitivity of colonies to gancyclovir; type: cell-based, rat
Method: Soft agar assay. To assay the capacity for anchorage independent growth, 5×10^4 cells were suspended in 2 ml of 0.3% Difco agar in IM and gently overlaid onto 60 mm dishes containing a lower layer of 0.5% agar. Cultures were fed every 5 to 7 days with a small amount of media. After 20 days of growth at 37° C., the dishes were stained with 0.5 mg/ml p-iodonitrotetrazolium violet (Sigma Chemical Co., St. Louis, Mo.), and macroscopically visible colonies (>100 μm in diameter) were scored. HepG2 cells were used as a positive control.

[3] = test system: tumors in SCID mice; experiment: Tumor sensitivity to gancyclovir in tumor-bearing SCID mice; type: in vivo, mouse
Method: SCID mouse studies. The tumorigenicity of cell lines was assayed by subcutaneous injection of cells into the flanks of immunodeficient (SCID) mice. Cells were dislodged from monolayer culture with trypsin, washed, and suspended in PBS. SCID mice were inoculated subcutaneously with 1×10^6 cells per site. Animals were monitored every third day for the development of growth at the sites of injection. Animals were sacrificed at 24 weeks or when tumors reached 1 to 2 cm in diameter. Tumors were processed for routine histology and immunohistochemistry. To determine tumor sensitivity to treatment with gancyclovir, some animals were given a 0.2 ml intraperitoneal injection of gancyclovir (50 mg/kg) daily for 14 days when tumors reached 1-1.2 cm in size.

For `CN[C@@H]1[C@@H](O)[C@@H](O[C@@H]2[C@@H](O)[C@H](O[C@H]3O[C@H]([C@@H](C)O)[C@@H](O)[C@H](O)[C@H]3N)[C@@H](N)C[C@H]2N)OC[C@]1(C)O` [G418], the “sensitivity of NKNT-3 cells to G418” value ([1]; G418 500 μg/ml) was “confirmed”.

With `Nc1nc(O)c2ncn(COC(CO)CO)c2n1` [gancyclovir] the “rare three-dimensional colonies after Ad-Cre infection, sensitivity to gancyclovir” value ([2]; C8-B/Ras cells after Ad-Cre infection) was “all were sensitive”, the “C8-B/Ras soft agar colonies, sensitivity to gancyclovir” value ([2]; media containing 5 μM gancyclovir) was “could be eliminated” and the tumor recurrence ([3]; 4-week post-gancyclovir observation period) was “no tumor recurrence”. For the same compound, the “tumor response by the end of gancyclovir treatment” value ([3]; gancyclovir 50 mg/kg, 14-day course) was “could no longer be identified clinically or histologically; also recorded: complete regression of established tumors”, the “time until tumors stopped growing” value ([3]; gancyclovir 50 mg/kg, 14-day course, tumors >1 cm) was no more than 5 days and the “sensitivity of NKNT-3 cells to ganciclovir” value ([1]; 5 μM ganciclovir) was “confirmed”.
